Results taken from article PMC6937325, “Tuning PFKFB3 Bisphosphatase Activity Through Allosteric Interference” (Scientific Reports, 2019).
“Also recorded” adds a separate entry of the source.

Legend:
[1] = biological target: T1, RED-NHS labeled recombinant PFKFB3 (Homo sapiens, UniProt Q16875); test: Microscale thermophoresis (MST) binding assay; details: for Binding Affinity: 100 nM RED-NHS labeled PFKFB3, 20 min at room temperature, Table 3; for KD: Table S3, list of synthesized peptides from VS
T1 construct: His tag (N, cleaved yes); made in house; host or cells: Escherichia coli BL21 (DE3) Plys
Method: The PFKFB3 plasmid was provided by Prof. Yong-Hwan Lee from Louisiana State University. The His-tagged human inducible bifunctional enzyme (GenBank code: AF056320.1) was expressed in Escherichia coli BL21 (DE3) Plys as reported previously. The PFKFB3 protein was purified using nickel affinity columns and the N-terminal His tag was removed using a standard protocol. After the treatment with thrombin the protein was eluted with an anion-exchange column. The pure protein was concentrated to 2–10 mg/mL and stored in 20 mM Tris HCl pH 8.0, 10 mM NaPi, 5 mM β-mercaptoethanol and 5% glycerol.
The dissociation constant was determined using Nanotemper microscale thermophoresis (MST)[38]. In a typical experiment, a compound was dissolved in MST buffer and mixed with 100 nM RED-NHS labeled recombinant PFKFB3 in 1:1 ratio. The mixture was incubated at room temperature for 20 min. and a full MST measurement was performed. Data were analyzed with Nanotemper software (https://nanotempertech.com/monolith/).

PFKFB3 bisphosphatase = biological target: T2, PFKFB3 bisphosphatase (Homo sapiens, UniProt Q16875); test: PFKFB3 bisphosphatase activity by LC-MS/MS quantitation of F6P; type: biochemical; details: for Effect on bisphosphatase activity / substrate conversion rate vs enzyme alone: Dunnett's multiple comparisons test (two-way ANOVA); for h, Hill coefficient (PFKFB3 in presence of compound) / Vmax (Hill equation, PFKFB3 in presence of compound): Hill fit of bisphosphatase kinetics; for h, Hill coefficient (PFKFB3 in presence of compound): enzyme alone 2.03; for Vmax (Hill equation, PFKFB3 in presence of compound): maximum velocity at enzyme saturation, enzyme alone 0.16; for Enzyme velocity: enzyme 100 nM, compound at 50 µM or equal to its KD, 18 h at 37 °C, Tris buffer pH 8, LC-MS/MS of F6P; for Khalf (Hill equation, PFKFB3 in presence of compound): substrate concentration giving half of maximum velocity, enzyme alone 21.51, in µM (unit assumed)
T2 construct: His tag (N, cleaved yes); made in house; host or cells: Escherichia coli BL21 (DE3) Plys
Method: HPLC grade water (18 MΩ) was prepared with a Milli-Q purification system (Millipore, Milan, IT). Ammonium formate, fructose-6-phosphate (F6P), Tris HCl, glycerol, 2-mercaptoethanol, sodium phosphate and Amicon-ultra centrifugal filters (30 kDa) were purchased from Sigma Aldrich. F2,6BP was kindly provided by Prof. Lisardo Boscá from Spanish National Research Council in Madrid, Spain. Compound AZ 33 was provided by Carlo DeDominicis, University of Aberdeen. Phosphatase activity of PFKFB3 was measured by quantitation of the reaction product (i.e. F6P) by means of liquid chromatography tandem mass spectrometry. Enzyme reaction rate was determined after 18 h of incubation at 37 °C in sterile (0.22 µm filtered) Tris buffer (20 mM Tris-HCl pH 8; 10 mM sodium phosphate; 5 mM 2-mercaptoethanol and 5% of glycerol) at a final enzyme concentration of 100 nM. Both the enzyme and the substrate (i.e. fructose-2,6-bisphosphate, F2,6BP) were pre-warmed at 37 °C for five min before starting the kinetics by spiking the substrate into the enzyme solution. To plot the enzyme kinetics, the reaction rate was measured in independent experiments at different concentration of substrate (i.e. 5, 10, 15, 20, 25, 30, 40 and 50 µM). Diafiltration on amicon-ultra filters (30 kDa MWCO) was used to stop the reactions. Both the residual substrate and the product were collected in the filtrate, while the enzyme was retained by the filter. The same protocol was used to measure the effect of ligands on enzyme phosphatase activity. For such a purpose the reaction rate was measured at the same substrate concentrations, but the enzyme was incubated with the compound and pre-warmed before starting the kinetics. Compounds were incubated with the enzyme at a concentration 50 µM or equal to their KD, if available. Independent analyses were done without the enzyme (i.e. controls) to assess any degradation of the substrate in the same experimental condition used for the enzyme kinetics. The concentration of the […] produced by the kinetics was determined by interpolation with a calibration curve obtained by the analysis of fructose-6-phosphate standards prepared in a concentration range between 0.5 µM and 50 µM. The velocity was calculated as nanomoles of F6P produced in one min by a nanomole of PFKFB3, subtracting the nanomoles of F6P produced by self-degradation of the substrate from the nanomoles of F6P produced by the enzyme kinetic.
Quantitation of F6P produced was provided by a Surveyor HPLC system connected to a TSQ Quantum Ultra triple quadrupole mass spectrometer by a Finnigan IonMax electrospray ionization (ESI) source assembled with a high flow stainless steel emitter (Thermo Scientific, Rodano, MI, Italy). Filtrate containing the kinetics products were diluted 1:4 in water and placed into the autosampler rack, which was cooled at 8 °C to prevent sample degradation during analyses. […] Table 1 reports the mobile phases and gradient program used for the elution.
The flow from the column was directly sprayed into the mass spectrometer with no further splitting. Nebulization and ionization were achieved by 70 units of sheath gas, 25 units of auxiliary gas, a capillary temperature of 270 °C and a spray voltage of −4.5 kV. The analyzer was set to scan the negative ions reported in Table 2 in Multiple Reaction Monitoring mode (MRM), with a scan time of 0.05 seconds and a resolution of 0.5 m/z for both the first and the third quadrupoles. The MRM transitions reported in Table 2 were previously optimized in a semi-automatic mode to achieve the best instrumental response and selectivity for fructose-6-phosphate, by flow injection of a standard solution.
In order to determine the effect of the PFKFB3-binding compounds on the bisphosphatase activity, a LC-MS/MS analytical method was developed. Firstly, separate kinetics were measured for the enzyme alone or equilibrated with compounds 4–8. […]

[2] = substrate F2,6BP 20 µM, asterisks = significance vs enzyme alone (two-way ANOVA, Dunnett)
[3] = substrate F2,6BP 25 µM, asterisks = significance vs enzyme alone
[4] = substrate F2,6BP 30 µM, asterisks = significance vs enzyme alone
[5] = substrate F2,6BP 40 µM, asterisks = significance vs enzyme alone
[6] = substrate F2,6BP 50 µM, asterisks = significance vs enzyme alone

T2 sequence (Q16875 whole entry): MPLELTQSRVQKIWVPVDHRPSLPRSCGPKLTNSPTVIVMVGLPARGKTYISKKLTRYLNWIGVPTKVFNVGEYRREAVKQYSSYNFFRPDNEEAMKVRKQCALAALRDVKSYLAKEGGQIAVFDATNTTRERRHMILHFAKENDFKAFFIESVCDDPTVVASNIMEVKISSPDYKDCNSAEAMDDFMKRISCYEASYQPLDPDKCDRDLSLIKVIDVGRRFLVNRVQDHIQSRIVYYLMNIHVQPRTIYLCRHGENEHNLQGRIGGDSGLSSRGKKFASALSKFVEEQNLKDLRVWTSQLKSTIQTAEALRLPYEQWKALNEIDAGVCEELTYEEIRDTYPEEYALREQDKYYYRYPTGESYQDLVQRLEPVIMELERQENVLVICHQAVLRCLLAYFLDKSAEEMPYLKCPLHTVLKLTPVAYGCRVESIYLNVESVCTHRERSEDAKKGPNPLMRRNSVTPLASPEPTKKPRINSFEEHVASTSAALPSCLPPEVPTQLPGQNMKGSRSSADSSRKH
T1 sequence (Q16875 whole entry): as above

Compound | Binding Affinity [1] | KD [1] | Effect on bisphosphatase activity / substrate conversion rate vs enzyme alone (PFKFB3 bisphosphatase) | h, Hill coefficient (PFKFB3 in presence of compound) (PFKFB3 bisphosphatase) | Vmax (Hill equation, PFKFB3 in presence of compound) (PFKFB3 bisphosphatase) | Enzyme velocity (PFKFB3 bisphosphatase; [2]) | Enzyme velocity (PFKFB3 bisphosphatase; [3]) | Enzyme velocity (PFKFB3 bisphosphatase; [4]) | Enzyme velocity (PFKFB3 bisphosphatase; [5]) | Enzyme velocity (PFKFB3 bisphosphatase; [6]) | Khalf (Hill equation, PFKFB3 in presence of compound) (PFKFB3 bisphosphatase)
Trp-Gly-Tyr [Compound 8] | not able to bind the enzyme; also recorded: No evidence of binding | No binding | no significant variations | 2.24 | 0.21 | 0.06 ± 0.03 nmol/min of F6P per nmol of enzyme | 0.05 ± 0.00 nmol/min of F6P per nmol of enzyme | 0.10 ± 0.01 nmol/min of F6P per nmol of enzyme | 0.14 ± 0.05 nmol/min of F6P per nmol of enzyme | 0.14 ± 0.04 nmol/min of F6P per nmol of enzyme | 32.83
CC(C)C[C@H](NC(=O)[C@H](Cc1ccccc1)NC(=O)CNC(=O)[C@H](CO)NC(=O)[C@@H](N)Cc1ccc(O)cc1)C(=O)N[C@H](C(=O)O)[C@@H](C)O [Compound 4] | – | – | no significant variations | 2.39 | 0.18 | 0.05 ± 0.03 nmol/min of F6P per nmol of enzyme | 0.07 ± 0.04 nmol/min of F6P per nmol of enzyme | 0.12 ± 0.03 nmol/min of F6P per nmol of enzyme | 0.13 ± 0.04 nmol/min of F6P per nmol of enzyme | 0.14 ± 0.01 nmol/min of F6P per nmol of enzyme | 26.54
SFLLRN-CONH2 [Compound 7] | not able to bind the enzyme; also recorded: No evidence of binding | No binding | no significant variations | 1.95 | 0.19 | 0.07 ± 0.01 nmol/min of F6P per nmol of enzyme | 0.07 ± 0.04 nmol/min of F6P per nmol of enzyme | 0.11 ± 0.04 nmol/min of F6P per nmol of enzyme | 0.14 ± 0.01 nmol/min of F6P per nmol of enzyme | 0.14 ± 0.01 nmol/min of F6P per nmol of enzyme | 28.12
